Reference: patent US8993595B2, “Macrocyclic serine protease inhibitors” (priority 2009, dated 2015)

Columns and labels:
HCV NS3-NS4A protease = biological target: T1, HCV NS3-NS4A protease (Hepatitis C virus genotype 1a, UniProt P27958); test: HCV Protease Assay (SensoLyte 620 HCV Protease Assay kit); assay type: biochemical; settings: 1.2 nM HCV NS3-NS4A protease, 60 min, room temperature
T1 construct: HCV NS3-NS4A protease, which was obtained according to Taremi et al; made in house
Method: Measurement of the inhibitory effect of compounds on HCV protease activity was performed with the SensoLyte™ 620 HCV Protease Assay kit from AnaSpec, Inc. (San Jose, Calif.) under conditions described by the supplier using 1.2 nM HCV NS3-NS4A protease, which was obtained according to Taremi et al. (Protein Science, 1998, 7, 2143-2149). The compounds were tested at a variety of concentrations in assay buffer containing a final DMSO concentration of 5%. Reactions were allowed to proceed for 60 min at room temperature and fluorescence measurements were recorded with a Tecan Infinity Spectrofluorimeter. The IC50 values were determined from the percent inhibition versus concentration data using a sigmoidal non-linear regression analysis based on four parameters with Tecan Magellan software.

in vitro = assay type: cell-based; settings: human; GS4.1 cells, Cell Titer 96 AQueous One Solution
Method: For cytotoxicity evaluation, GS4.1 cells were treated with compounds as described above and cellular viability was monitored using the Cell Titer 96 AQueous One Solution Cell Proliferation Assay (Promega). CC50 values were determined from the % cytotoxicity versus concentration data with Tecan Magellan software as described above.

[1] = system: HCV Con1 subgenomic replicon in Huh-7 cells (GS4.1 cells); test: HCV Replicon Assay (NS4A ELISA); assay type: cell-based; settings: Hepatitis C virus, 72 hr
Method: Huh-7 cells containing HCV Con1 subgenomic replicon (GS4.1 cells) were grown in Dulbecco's Modified Eagle Medium (DMEM) supplemented with 10% fetal bovine serum (FBS), 2 mM L-glutamine, 110 mg/L sodium pyruvate, 1× non-essential amino acids, 100 U/mL penicillin-streptomycin, and 0.5 mg/mL G418 (Invitrogen). For dose-response testing, the cells were seeded in 96-well plates at 7.5×10^3 cells/well in a volume of 50 μL, and incubated at 37° C./5% CO2. Three hours after plating, 50 μL of ten 2-fold serial dilutions of compounds (highest concentration, 75 μM) were added, and cell cultures were incubated at 37° C./5% CO2 in the presence of 0.5% DMSO. Alternatively, compounds were tested at a single concentration of 15 μM. In all cases, Huh-7 cells lacking the HCV replicon served as negative control. The cells were incubated in the presence of compounds for 72 hr after which they were monitored for expression of the NS4A protein by enzyme-linked immunosorbent assay (ELISA). For this, the plates were then fixed for 1 min with acetone/methanol (1:1, v/v), washed twice with phosphate-buffered saline (PBS), 0.1% Tween 20, blocked for 1 hr at room temperature with TNE buffer containing 10% FBS and then incubated for 2 hr at 37° C. with the anti-NS4A mouse monoclonal antibody A-236 (ViroGen) diluted in the same buffer. After washing three times with PBS, 0.1% Tween 20, the cells were incubated 1 hr at 37° C. with anti-mouse immunoglobulin G-peroxidase conjugate in TNE, 10% FBS. After washing as described above, the reaction was developed with O-phenylenediamine (Zymed). The reaction was stopped after 30 min with 2 N H2SO4, and absorbance was read at 492 nm using Sunrise Tecan spectrophotometer. EC50 values were determined from the % inhibition versus concentration data using a sigmoidal non-linear regression analysis based on four parameters with Tecan Magellan software.

T1 sequence (P27958 1027-1208): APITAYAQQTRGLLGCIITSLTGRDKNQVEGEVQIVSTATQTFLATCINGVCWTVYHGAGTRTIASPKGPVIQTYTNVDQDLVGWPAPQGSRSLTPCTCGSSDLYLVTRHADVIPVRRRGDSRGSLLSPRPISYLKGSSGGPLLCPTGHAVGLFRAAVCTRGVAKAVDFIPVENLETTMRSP

SMILES	IC50 (HCV NS3-NS4A protease) [nM]	CC50 (in vitro) [nM]	EC50 [1] [nM]
COc1ccc2c(O[C@H]3CCN4C(=O)N(C)CCCC/C=C\[C@@H]5C[C@@]5(C(=O)NS(=O)(=O)C5CC5)NC(=O)[C@@H]4C3)cc(-c3nc(C(F)(F)F)cs3)nc2c1C [Compound 51, 1-cyclopropanesulfonic acid{(Z)-(1S,4R,6S,18S)-18-[7-methoxy-8-methyl-2-(4-trifluoromethyl-thiazol-2-yl)-quinolin-4-yloxy]-13-methyl-2,14-dioxo-3,13,15-triaza-tricyclo[13.4.0.0*4,6*]nonadec-7-ene-4-carbonyl}amide]	< 1000	10000 to 75000	< 1000
COc1ccc2c(O[C@H]3CCN4C(=O)N(C)CCOC/C=C\[C@@H]5C[C@@]5(C(=O)NS(=O)(=O)C5(C)CC5)NC(=O)[C@@H]4C3)cc(-c3nc(C(F)(F)F)cs3)nc2c1C [Compound 54]	< 1000	> 75000	1000 to 10000
C#Cc1csc(-c2cc(O[C@H]3CCN4C(=O)N(C)CCCC/C=C\[C@@H]5C[C@@]5(C(=O)NS(=O)(=O)C5(C)CC5)NC(=O)[C@@H]4C3)c3ccc(OC)c(C)c3n2)n1 [Compound 55, 1-methyl-cycloprpoanesulfonic acid{(Z)-(1S,4R,6S,18S)-18-[2-(4-ethynyl-thiazol-2-yl)-7-methoxy-8-methyl-quinolin-4-yl-oxy]-13-methyl-2,14-dioxo-3,13,15-triaza-tricyclo[13.4.0.0*4,6*]nonadec-7-ene-4-carbonyl}-amide]	< 1000	10000 to 75000	< 1000
COc1ccc2c(O[C@H]3CCN4C(=O)N(C)CCCC/C=C\[C@@H]5C[C@@]5(C(=O)NS(=O)(=O)C5(C)CC5)NC(=O)[C@@H]4C3)nc(-c3ccc(F)cc3)nc2c1C [Compound 56]	< 1000	> 75000	< 1000
COc1ccc2c(O[C@H]3CCN4C(=O)N(C)CCCC/C=C\[C@@H]5C[C@@]5(C(=O)NS(=O)(=O)C5(C)CC5)NC(=O)[C@@H]4C3)nc(-c3nc(C(F)(F)F)cs3)nc2c1C [Compound 57, 1-methyl-cyclopropanesulfonic acid {(Z)-(1S,4R,6S,18S)-18-[7-methoxy-8-methyl-2-(4-trifluoromethyl-thiazol-2-yl)quinazolin-4-yloxy]-13-methyl-2,14-dioxo-3,13,15-triaza-tricyclo[13.4.0.0*4,6*]nonadec-7-ene-4-carbonyl}-amide]	< 1000	10000 to 75000	< 1000
COc1ccc2c(O[C@H]3CCN4C(=O)CCCCC/C=C\[C@@H]5C[C@@]5(C(=O)NS(=O)(=O)C5CC5)NC(=O)[C@@H]4C3)cc(-c3nc(C(F)(F)F)cs3)nc2c1C [Compound 58]	< 1000	10000 to 75000	< 1000
